Assay results published in patent US7906486B2, “Method of treating or preventing tissue deterioration, injury or damage due to disease of mucosa” (SciClone Pharmaceuticals, Inc., priority 2007, dated 2011).
“And” between values parts separate entries of the source, which are not always exact repeats. Identical values can stand only once.

Tested on: oral mucositis induced by cis-platin 5 mg/kg and radiation 35 Gy (left cheek pouch)
Experiment: Oral mucositis induced by a combination of cisplatin and acute radiation in hamsters, mucositis scoring (Example 4, SCI-04)
Format: in vivo, Syrian Golden Hamsters
Design: key: 0: Pouch completely healthy. No erythema or vasodilation.; 1: Light to severe erythema and vasodilation. No erosion of mucosa.; 2: Severe erythema and vasodilation. Erosion of superficial aspects of mucosa leaving denuded areas. Decreased stippling of mucosa.; 3: Formation of off-white ulcers in one or more places. Ulcers may have a yellow/gray due to pseudomembrane. Cumulative size of ulcers should equal about ¼ of the pouch. Severe erythema and vasodilation.; 4: Cumulative seize of ulcers should equal about ½ of the pouch. Loss of pliability. Severe erythema and vasodilation.; 5: Virtually all of pouch is ulcerated. Loss of pliability (pouch can only partially be extracted from mouth)
Conditions: Group 2 (SCV-07 10 μg/kg, day -1 to day 20), individual animal scores, two scores per animal
Experimental: Forty Golden Syrian hamsters were prospectively randomized into four equally sized groups. Mucositis was induced on the left cheek pouch mucosa of golden Syrian hamsters by a single dose of cis-platin at 5 mg/kg given on day −1, and a single dose of radiation administered on day 0 at a dose of 35Gy. Beginning on day −1 and continuing once daily until day 20, SCV-07 was given by sub-cutaneous injection at doses of 10 μg/kg, 100 μg/kg or 1 mg/kg in a volume of 100 μL. Animals' activity and weight were evaluated daily. Beginning on day 6 and continuing on alternate days for the duration of the study, oral mucositis was evaluated using a standard scoring six point scale. The number of days of ulcerative mucositis was evaluated using a Chi-squared test of scores of ≧3 throughout the study, and the individual daily group scores were assessed with a Rank Sum Test.
The chemo-radiation model of oral mucositis in hamsters, developed by the Principal Investigator, has proven to be an accurate, efficient and cost-effective technique to provide a preliminary evaluation of anti-mucositis compounds. In this model, hamsters received a single dose of cis-platin at 5 mg/kg on day −1, followed by a single dose of radiation of 35 Gy to the left cheek pouch on day 0, rather than the single dose of 40 Gy on day 0 that is used in acute radiation studies. The course of mucositis in this model is very similar to the acute radiation model and results in peak mucositis scores approximately 16-18 days following radiation.
Hamsters received a single dose of cis-platin at 5 mg/kg on day −1 by intra-peritoneal injection, followed by a single dose of radiation of 35 Gy to the left cheek pouch on day 0. This was accomplished by anesthetizing the animals and everting the left buccal pouch, while protecting the rest of the animal's bodies with a lead shield. Test materials were given by sub-cutaneous injection once daily as detailed in Table 13. Mucositis was evaluated clinically starting on day 6, and continuing on alternate days until day 28. Test articles were given as from day −1 to day 20.
The grade of mucositis was scored, beginning day 6, and for every second day thereafter, through and including day 28. The effect on mucositis of each drug treatment compared to placebo was assessed according to the following parameters:
On each evaluation day, the number of animals with a blinded mucositis score of ≧3 in each drug treatment group was compared to the control group. Differences were compared on a cumulative basis and statistical significance was determined by chi-square analysis. Efficacy, in this analysis, is defined by a significant reduction in the number of days that a group of animals had ulcerations (scores 3) when compared to the control group.
For each evaluation day the scores of the control group were compared to those of the treated groups using non-parametric rank sum analysis. Treatment success was considered as a statistically significant lowering of scores in the treated group on 2 or more days from day 6 to day 28.
Forty (40) male Syrian Golden Hamsters were given an intraperitoneal injection of 5 mg/kg Cisplatin on day −1. On day 0 all animals were given an acute radiation dose of 35 Gy directed to their left buccal cheek pouch. This was accomplished by anesthetizing the animals and everting the left buccal pouch, while protecting the rest of the animals with a lead shield. Test materials were given by subcutaneous injection once daily as detailed in Table 13. Mucositis was evaluated clinically starting on Day 6, and continued on alternate days until day 28.
In this study, mucositis was induced with a combination of Cis-platin and radiation. Cis-platin was given as a single injection (IP) of 5 mg/kg on day −1. Radiation was given as a single focal dose of 35 Gy on day 0. Radiation was generated with a Philips 160 kVp (kilovolt potential) (18.75-ma) X-ray source at a focal distance of 30 cm, with a 3.0 mm hardened Al filtration system. […]

SMILES: N[C@H](CCC(=O)N[C@@H](Cc1c[nH]c2ccccc12)C(=O)O)C(=O)O [SCV-07, γ-D-glutamyl-L-tryptophan]
- Mucositis score, day 10 (day 10): 1
- Mucositis score, day 12 (day 12): 3
- Mucositis score, day 14 (day 14): 3
- Mucositis score, day 16 (day 16): 3 (14×) and 4 (2×)
- Mucositis score, day 18 (day 18): 3 (12×) and 4 (2×)
- Mucositis score, day 20 (day 20): 3 (12×) and 1
- Mucositis score, day 22 (day 22): 1 (4×) and 3 (8×)
- Mucositis score, day 24 (day 24): 1 (5×) and 3 (4×)
- Mucositis score, day 26 (day 26): 1 (11×) and 3 (4×)
- Mucositis score, day 28 (day 28): 0 (7×) and 1 (8×) and 3 (2×)
